Reference: publication PMC4467398, “Preclinical antitumor activity of ST7612AA1: a new oral thiol-based histone deacetylase (HDAC) inhibitor” (Oncotarget, 2014)

System: DOHH2 and TMD8 DLBCL cells
Assay: Gene expression profiling (HumanHT-12 v4 BeadChip, limma), ST7612AA1 300 nM 8 hrs vs DMSO
Type: cell-based, human
Conditions: 300 nM 8 hrs vs DMSO

SMILES: CC(=O)SCCCCC[C@H](NC(=O)[C@H]1CCC(=O)N1)C(=O)Nc1ccccc1 [ST7612AA1]
- log ratio ATP6V0C (probe ILMN_1773849): 8.22E-01
- log ratio ATP6V1G2 (probe ILMN_1654541): 8.47E-01
- log ratio ATP6V1H (ILMN_2403730): 6.35E-01
- log ratio ATP7B (probe ILMN_1722056): 8.88E-01
- log ratio AVEN (ILMN_1710216): -1.49E+00
- log ratio AVPI1 (probe ILMN_1671731): 8.94E-01
- log ratio AZI1 (probe ILMN_1746206): 7.59E-01
- log ratio BAG2 (ILMN_3244893): -9.02E-01
- log ratio BCCIP (ILMN_1771966): -9.03E-01
- log ratio BCLAF1 (ILMN_1775192): -8.85E-01
- log ratio BCLAF1 (ILMN_2357272): -8.42E-01
- log ratio BEND3 (ILMN_2375032): -9.71E-01
- log ratio BHLHB2 (ILMN_1768534): -5.96E-01
- log ratio BID (ILMN_1763386): -1.18E+00
- log ratio BID (ILMN_2372413): -8.80E-01
- log ratio BIK (probe ILMN_1770505): 7.57E-01
- log ratio BLK (ILMN_1668277): -8.77E-01
- log ratio BLVRB (probe ILMN_1797793): 8.74E-01
- log ratio BMF (ILMN_1695354): 6.49E-01
- log ratio BNIP3L (probe ILMN_1718961): 8.34E-01
- log ratio BPHL (probe ILMN_1657746): 8.91E-01
- log ratio BRIX1 (ILMN_1679800): -1.03E+00
- log ratio BRIX1 (ILMN_2155172): -1.19E+00
- log ratio BRPF3 (ILMN_1658800): -7.82E-01
- log ratio C3orf34 (probe ILMN_1665217): 6.96E-01
- log ratio C4orf32 (probe ILMN_1700257): 8.83E-01
- log ratio C7orf47 (ILMN_1741475): 6.62E-01
- log ratio C7orf55 (ILMN_3238680): -1.06E+00
- log ratio C8orf13 (ILMN_1687213): 6.60E-01
- log ratio C8orf33 (ILMN_2098325): -8.34E-01
- log ratio C9orf45 (ILMN_1719998): 6.75E-01
- log ratio C10orf32 (ILMN_2151056): -8.22E-01
- log ratio C12orf24 (ILMN_2180371): -1.09E+00
- log ratio C12orf52 (probe ILMN_1667857): 6.98E-01
- log ratio C13orf15 (probe ILMN_1658494): 7.74E-01
- log ratio C13orf25 (ILMN_1660754): -8.20E-01
- log ratio C14orf4 (ILMN_1804396): 6.53E-01
- log ratio C14orf173 (probe ILMN_2393450): 7.70E-01
- log ratio C14orf179 (probe ILMN_1756877): 7.81E-01
- log ratio C16orf57 (ILMN_1765880): 6.49E-01
- log ratio C17orf58 (ILMN_1712985): 6.08E-01
- log ratio C17orf58 (ILMN_2398926): 6.52E-01
- log ratio C18orf45 (ILMN_1690442): 6.69E-01
- log ratio C18orf55 (ILMN_1748916): -8.33E-01
- log ratio C19orf2 (ILMN_2406892): -6.10E-01
- log ratio C20orf108 (ILMN_1708016): 6.16E-01
- log ratio C20orf177 (ILMN_1718712): -9.03E-01
- log ratio CA2 (probe ILMN_2199439): 7.93E-01
- log ratio CABLES1 (ILMN_1653001): -5.93E-01
- log ratio CALM1 (ILMN_1778242): 6.20E-01
- log ratio CAMLG (probe ILMN_1714599): 7.30E-01
- log ratio CARHSP1 (ILMN_1809477): 5.98E-01
- log ratio CASC1 (ILMN_1708983): 6.58E-01
- log ratio CASC4 (probe ILMN_2325574): 6.85E-01
- log ratio CBX7 (probe ILMN_1657361): 7.49E-01
- log ratio CCDC6 (ILMN_1745904): 6.24E-01
- log ratio CCDC16 (ILMN_2154603): -8.59E-01
- log ratio CCDC24 (probe ILMN_1718771): 6.89E-01
- log ratio CCDC43 (ILMN_1743783): -5.96E-01
- log ratio CCDC58 (ILMN_1686920): -1.25E+00
- log ratio CCDC59 (ILMN_1662318): -8.48E-01
- log ratio CCDC86 (ILMN_1792681): -9.35E-01
- log ratio CCDC92 (probe ILMN_1731107): 8.05E-01
- log ratio CCDC128 (ILMN_1667356): 6.21E-01
- log ratio CCNYL1 (ILMN_1810069): 6.58E-01
- log ratio CCNYL1 (ILMN_2166524): 6.44E-01
- log ratio CCR7 (ILMN_1715131): 6.79E-01
- log ratio CD58 (ILMN_1785268): -9.16E-01
- log ratio CD58 (ILMN_2147517): -9.82E-01
- log ratio CD74 (ILMN_1736567): 6.75E-01
- log ratio CD74 (probe ILMN_1761464): 8.47E-01
- log ratio CD74 (probe ILMN_2379644): 7.27E-01
- log ratio CDC2L6 (probe ILMN_1676891): 6.96E-01
- log ratio CDC25A (ILMN_1711005): -8.24E-01
- log ratio CDC42EP5 (probe ILMN_1774982): 8.75E-01
- log ratio CDK2AP2 (probe ILMN_1690653): 8.01E-01
- log ratio CDK4 (ILMN_1689001): -8.13E-01
- log ratio CECR1 (probe ILMN_1751851): 8.43E-01
- log ratio CEP70 (ILMN_1741350): 6.16E-01
- log ratio CERK (ILMN_1767475): 6.70E-01
- log ratio CHCHD4 (ILMN_1813938): -1.36E+00
- log ratio CHD7 (ILMN_1677376): 6.71E-01
- log ratio CHRAC1 (ILMN_1722390): -6.19E-01
- log ratio CHSY1 (ILMN_1791576): 6.80E-01
- log ratio CLCC1 (probe ILMN_1671933): 8.48E-01
- log ratio CLECL1 (ILMN_1782729): -1.24E+00
- log ratio CLIC4 (probe ILMN_2063586): 7.49E-01
- log ratio CLIP2 (ILMN_2352190): 6.09E-01
- log ratio CMIP (ILMN_1738075): 6.47E-01
- log ratio CMTM8 (probe ILMN_1710124): 7.00E-01
- log ratio CNFN (ILMN_1803838): 6.20E-01
- log ratio CNIH2 (ILMN_1698733): 6.32E-01
- log ratio COCH (ILMN_1711514): -6.14E-01
- log ratio COIL (ILMN_1688034): -9.94E-01
- log ratio COTL1 (probe ILMN_1788283): 6.87E-01
- log ratio CPOX (ILMN_3240389): 6.04E-01
- log ratio CRIP1 (probe ILMN_1656920): 8.56E-01
- log ratio CRYM (probe ILMN_1779241): 8.32E-01
- log ratio CSRP1 (probe ILMN_1811921): 7.01E-01
- log ratio CSTB (probe ILMN_1761797): 8.06E-01
- log ratio CTPS (ILMN_1783285): -1.21E+00
- log ratio CTSB (probe ILMN_2359742): 8.56E-01
- log ratio CUEDC1 (ILMN_1676665): 5.93E-01
- log ratio CUL1 (ILMN_1749629): -1.05E+00
- log ratio CXADR (probe ILMN_1796925): 8.18E-01
- log ratio CXCL16 (ILMN_1728478): 6.11E-01
- log ratio CXorf26 (ILMN_1768176): -1.34E+00
- log ratio CXorf57 (probe ILMN_1703279): 8.25E-01
- log ratio CYB5R1 (probe ILMN_1729237): 7.59E-01
- log ratio CYB5R3 (probe ILMN_1740441): 7.06E-01
- log ratio CYP2R1 (probe ILMN_2119774): 7.88E-01
- log ratio DAD1 (ILMN_1731619): 6.40E-01
- log ratio DCTD (ILMN_1802456): -1.08E+00
- log ratio DCTN6 (ILMN_1744059): -8.19E-01
- log ratio DCXR (ILMN_1681437): 6.03E-01
- log ratio DDN (ILMN_1673450): -6.03E-01
- log ratio DDX21 (ILMN_1735461): -9.88E-01
- log ratio DEF8 (probe ILMN_1767509): 8.37E-01
- log ratio DGCR6L (probe ILMN_3245688): 7.47E-01
- log ratio DGKQ (ILMN_1793017): 6.08E-01
- log ratio DHRS2 (ILMN_1725726): 6.46E-01
- log ratio DIS3L (ILMN_1795822): -1.05E+00
- log ratio DKC1 (ILMN_1671257): -1.02E+00
- log ratio DNLZ (ILMN_2112049): -1.09E+00
- log ratio DNMT3B (probe ILMN_1794692): 8.14E-01
- log ratio DOK4 (ILMN_1774261): 6.37E-01
- log ratio DPF1 (ILMN_1769961): 6.38E-01
- log ratio DPH2 (ILMN_2375418): -1.21E+00
- log ratio DSTN (probe ILMN_1706426): 7.52E-01
- log ratio DTX1 (ILMN_1689002): -5.96E-01
- log ratio DUS3L (ILMN_1723235): -1.36E+00
- log ratio DYNC1H1 (probe ILMN_1780302): 6.97E-01
- log ratio DYNLL2 (probe ILMN_1772796): 8.61E-01
- log ratio DYRK1A (ILMN_2374293): -5.97E-01
- log ratio DYRK3 (probe ILMN_2400322): 6.97E-01
- log ratio DYRK3 (probe ILMN_2400326): 8.26E-01
- log ratio EARS2 (ILMN_1758750): -5.91E-01
- log ratio EBI2 (ILMN_1798706): -8.22E-01
- log ratio EBI2 (ILMN_2168217): -9.10E-01
- log ratio ECHS1 (probe ILMN_1718132): 7.78E-01
- log ratio EEF1B2 (ILMN_1685678): -8.07E-01
- log ratio EEF1E1 (ILMN_1725105): -8.38E-01
- log ratio EGR1 (probe ILMN_1762899): 8.42E-01
- log ratio ELOF1 (probe ILMN_1723185): 7.14E-01
- log ratio EMG1 (ILMN_1797074): -1.12E+00
- log ratio ENC1 (probe ILMN_1779147): 7.93E-01
- log ratio ENO2 (probe ILMN_1765796): 7.11E-01
- log ratio EPB41L5 (ILMN_1770245): 6.78E-01
- log ratio EPN1 (ILMN_1772981): 6.50E-01
- log ratio ERRFI1 (probe ILMN_1665510): 7.44E-01
